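All cell lines were grown in 96-well plates and treated with compound for 48 hours. GI50 marks 50% less growth.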 Active and inactive are the calls of the source. No stated cut-off is given here; in the data, active = GI50 up to about 1.1 µM and inactive = higher. *1 amine or outer side, *2 acyl side, *3 side chain or, on linkers, in order; H or OH if unused. Where a SMILES comes first, the peptide text is derived from it. [ ]: non-standard residue; d: D form. The star is where a group is joined. ξ: configuration not given here. X53 = CC(C)C[C@H](N[*:1])C1=N[C@H](C(=O)[*:2])CS1; Ile(3ξ) = CCC(C)[C@H](N)C(=O)O; Allyl(1,1-Me2) = C=CC(C)(C)*
Legend:
Experiment in all cases: growth of human tumour cells (NCI), 48 h
A549 = system: A549
ACHN = system: ACHN
CCRF-CEM = system: CCRF-CEM
DU-145 = system: DU-145
HOP-62 = system: HOP-62
LOX IMVI = system: LOX IMVI
M14 = system: M14
MCF7 = system: MCF7
MDA-MB-231 = system: MDA-MB-231
NCI-H226 = system: NCI-H226
OVCAR-3 = system: OVCAR-3
OVCAR-5 = system: OVCAR-5
RXF 393 = system: RXF 393
SF-295 = system: SF-295
SF-539 = system: SF-539
SK-MEL-28 = system: SK-MEL-28
SN12C = system: SN12C
T47D = system: T47D
UACC-257 = system: UACC-257
UO-31 = system: UO-31

SMILES | GI50 (A549) | GI50 (ACHN) | GI50 (CCRF-CEM) | GI50 (DU-145) | GI50 (HOP-62) | GI50 (LOX IMVI) | GI50 (M14) | GI50 (MCF7) | GI50 (MDA-MB-231) | GI50 (NCI-H226) | GI50 (OVCAR-3) | GI50 (OVCAR-5) | GI50 (RXF 393) | GI50 (SF-295) | GI50 (SF-539) | GI50 (SK-MEL-28) | GI50 (SN12C) | GI50 (T47D) | GI50 (UACC-257) | GI50 (UO-31)
O=C1C=C(Nc2cccnc2)c2ccccc2C1=O | 3.65 µM (inactive) | 7.73 µM (inactive) | 15.2 µM (inactive) | 4.15 µM (inactive) | 4.23 µM (inactive) | 2.61 µM (inactive) | 1.91 µM (inactive) | 2.64 µM (inactive) | 4.61 µM (inactive) | 25.6 µM (inactive) | 2.72 µM (inactive) | 8.13 µM (inactive) | 13.1 µM (inactive) | 2.92 µM (inactive) | 2.97 µM (inactive) | 5.58 µM (inactive) | 8.02 µM (inactive) | 21.4 µM (inactive) | 1.9 µM (inactive) | 12 µM (inactive)
N=c1sc2ccccc2n1CC[S-].c1ccc2c(c1)sc1[n+]2CCS1 | 16.9 µM (inactive) | 16.3 µM (inactive) | 9.06 µM (inactive) | 21.2 µM (inactive) | 17.3 µM (inactive) | 16.9 µM (inactive) | 16.1 µM (inactive) | 12.9 µM (inactive) | 17 µM (inactive) | 16.7 µM (inactive) | 19.3 µM (inactive) | 20.5 µM (inactive) | 20.7 µM (inactive) | 17.4 µM (inactive) | 6.58 µM (inactive) | 18.7 µM (inactive) | 21.1 µM (inactive) | 23.6 µM (inactive) | 17.8 µM (inactive) | 12.5 µM (inactive)
O=c1cc(NNc2ccccc2)[nH]c(=S)[nH]1 | > 100 µM (inactive) | 43.7 µM (inactive) | 29.8 µM (inactive) | 64.9 µM (inactive) | > 100 µM (inactive) | 16.8 µM (inactive) | 36.7 µM (inactive) | 25.9 µM (inactive) | 32.1 µM (inactive) | > 100 µM (inactive) | 16.7 µM (inactive) | > 100 µM (inactive) | 50.2 µM (inactive) | > 100 µM (inactive) | 50.2 µM (inactive) | 42.7 µM (inactive) | > 100 µM (inactive) | 27.1 µM (inactive) | 47.6 µM (inactive) | > 100 µM (inactive)
COc1cccc(CC(C)NCC(O)c2ccc(O)c(O)c2)c1 (stereo not drawn) | 57 µM (inactive) | 36.6 µM (inactive) | 21 µM (inactive) | 31.9 µM (inactive) | 34.8 µM (inactive) | 43.3 µM (inactive) | 38 µM (inactive) | 41.8 µM (inactive) | 10.8 µM (inactive) | 24.8 µM (inactive) | 26.6 µM (inactive) | 17.3 µM (inactive) | > 100 µM (inactive) | > 100 µM (inactive) | 37.2 µM (inactive) | 52.1 µM (inactive) | 25 µM (inactive) | 25.3 µM (inactive) | 34.1 µM (inactive) | 39.3 µM (inactive)
CCCC(=O)Nc1cc(/C=C/C(=O)N2C[C@@H]3C[C@]34C2=CC(=O)c2[nH]cc(C)c24)n(C)c1 | 0.318 µM (active) | 0.0689 µM (active) | 0.0321 µM (active) | 0.0673 µM (active) | 0.769 µM (active) | 0.0733 µM (active) | 0.297 µM (active) | 0.0596 µM (active) | 0.38 µM (active) | 0.313 µM (active) | 0.429 µM (active) | 1.05 µM (active) | 0.0711 µM (active) | 0.453 µM (active) | 0.166 µM (active) | 0.408 µM (active) | 0.47 µM (active) | 0.0867 µM (active) | 0.098 µM (active) | 0.473 µM (active)
C=CC(C)(C)OC[C@@H]1NC(=O)CNC(=O)[C@@H]2CCCN2C(=O)[C@H](C(C)CC)NC(=O)[C@@H]2CSC(=N2)[C@H](CC(C)C)NC1=O (stereo partly drawn) (cyclo(GS(Allyl(1,1-Me2))[X53][Ile(3ξ)]P)) | 80 µM (inactive) | 76.6 µM (inactive) | 30.9 µM (inactive) | 77.6 µM (inactive) | > 100 µM (inactive) | > 100 µM (inactive) | > 100 µM (inactive) | 40.6 µM (inactive) | > 100 µM (inactive) | > 100 µM (inactive) | 47.9 µM (inactive) | > 100 µM (inactive) | > 100 µM (inactive) | 45.2 µM (inactive) | > 100 µM (inactive) |  | > 100 µM (inactive) | 33.6 µM (inactive) | 38.5 µM (inactive) | 41.6 µM (inactive)
CC1(C)N=c2c(ncn2CCCO)=C(C(N)=O)N1 | > 100 µM (inactive) | > 100 µM (inactive) | > 100 µM (inactive) | > 100 µM (inactive) | > 100 µM (inactive) | > 100 µM (inactive) | > 100 µM (inactive) | > 100 µM (inactive) | > 100 µM (inactive) | > 100 µM (inactive) | > 100 µM (inactive) | > 100 µM (inactive) | > 100 µM (inactive) | > 100 µM (inactive) | > 100 µM (inactive) | > 100 µM (inactive) | > 100 µM (inactive) | > 100 µM (inactive) | > 100 µM (inactive) | 
